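All cell lines were grown in 96-well plates and treated with compound for 48 hours. At the TGI there is no net growth.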
Assays:
Experiment in all cases: DTP human tumour cell line panel, 48 h
[1] = tested on: HCT-15 colon
[2] = tested on: HCT-116 colon
[3] = tested on: EKVX NSCLC
[4] = tested on: TK-10 renal
[5] = tested on: LOX IMVI melanoma
[6] = tested on: MDA-MB-435
[7] = tested on: RPMI-8226 leukemia
[8] = tested on: M14 melanoma
[9] = tested on: SNB-75 CNS
[10] = tested on: HOP-92 NSCLC
[11] = tested on: MCF7 breast
[12] = tested on: UACC-257 melanoma
[13] = tested on: NCI-H522 lung
[14] = tested on: OVCAR-3 ovarian
[15] = tested on: SN12C renal
[16] = tested on: COLO 205 colon
[17] = tested on: MDA-N
[18] = tested on: UACC-62 melanoma
[19] = tested on: BT-549 breast
[20] = tested on: MDA-MB-231 breast

Row | Structure (SMILES) | TGI [1] | TGI [2] | TGI [3] | TGI [4] | TGI [5] | TGI [6] | TGI [7] | TGI [8] | TGI [9] | TGI [10] | TGI [11] | TGI [12] | TGI [13] | TGI [14] | TGI [15] | TGI [16] | TGI [17] | TGI [18] | TGI [19] | TGI [20]
1 | COc1ccc(NCC(=O)Nn2c(C)nc3ccc(S(=O)(=O)Nc4ccc(OC)cc4)cc3c2=O)cc1 | > 100 µM | > 100 µM | > 100 µM | > 100 µM | > 100 µM | > 100 µM | > 100 µM | > 100 µM | > 100 µM | > 100 µM | > 100 µM | > 100 µM | > 100 µM | > 100 µM | > 100 µM | > 100 µM | > 100 µM | > 100 µM | > 100 µM | > 100 µM
2 | CC1CC[C@@]2(OC1)OC1C[C@H]3[C@@H]4CC[C@H]5CC(OC6OC(CO)C(OC7OC(CO)C(O)C(O)C7O)C(O)C6O)CCC5(C)[C@H]4CCC3(C)C1[C@@H]2C (stereo not given in full) | 28.9 µM | 15 µM | 12.2 µM | 17.6 µM | 12.3 µM | 18 µM | 45.3 µM | 18.2 µM | 18.7 µM | 16.5 µM | 15 µM | 18.3 µM | 13.8 µM | 14.6 µM | 15.3 µM | 14 µM | 16.3 µM | 17.6 µM | 11 µM | 17.2 µM
3 | c1ccc2c(c1)CCN2CCc1c[nH]c2ccccc12 | > 10 µM | > 10 µM | > 10 µM | > 10 µM | > 10 µM | > 10 µM | > 10 µM | > 10 µM | > 10 µM | > 10 µM | > 10 µM | > 10 µM | > 10 µM | > 10 µM | > 10 µM | > 10 µM | > 10 µM | > 10 µM | > 10 µM | > 10 µM
4 | CSc1c(C(=O)Nc2ccc(Cl)cc2)c(N)[nH]c(=O)c1C#N | > 100 µM | 44.3 µM | > 80 µM | > 100 µM | > 25.8 µM | > 70.9 µM | > 100 µM | > 100 µM | > 100 µM | 59.9 µM | > 78.6 µM | > 93.7 µM | 51.7 µM | 63 µM | > 82.2 µM | 45.8 µM | > 70 µM | > 100 µM | > 91.1 µM | > 60.9 µM
5 | Cc1ccc(-c2n[nH]c(=O)[nH]2)cc1 | > 100 µM | > 100 µM | > 100 µM | > 100 µM | > 100 µM | > 100 µM | > 100 µM | > 100 µM | > 100 µM | > 46.4 µM | > 100 µM | 98.7 µM | > 100 µM | > 100 µM | > 100 µM | > 100 µM | > 100 µM | > 100 µM | > 100 µM | > 100 µM
6 | Cc1cc(C2(c3cc(C)c(O)c(C(=O)O)c3)OS(=O)(=O)c3ccccc32)cc(C(=O)O)c1O | > 100 µM | > 100 µM | > 100 µM | > 100 µM | > 100 µM | > 100 µM | > 100 µM | > 100 µM | > 100 µM | > 100 µM | > 100 µM | > 100 µM | > 100 µM | > 100 µM | > 100 µM | > 100 µM | > 100 µM | > 100 µM | > 100 µM | > 100 µM
7 | N=c1oc2ccc(Cl)cc2cc1C(=O)Nc1ccccc1 | > 100 µM | > 100 µM | > 100 µM | > 100 µM | > 100 µM | > 100 µM | > 100 µM | > 100 µM | > 86.4 µM | > 100 µM | > 100 µM | > 100 µM | > 100 µM | > 100 µM | > 100 µM | > 100 µM | > 100 µM | > 100 µM | > 100 µM | > 100 µM
8 | Cc1ccc(C(=O)C#Cc2cn(C3CC(O)C(CO)O3)c(=O)[nH]c2=O)cc1 (stereo not given) | > 100 µM | > 100 µM | > 100 µM | > 100 µM | > 100 µM | > 100 µM | > 100 µM | > 100 µM | > 100 µM | 65.1 µM | > 100 µM | > 100 µM | 23.9 µM | 60 µM | > 100 µM | > 100 µM | > 100 µM | > 100 µM | > 100 µM | > 100 µM
9 | CCOC(=O)COc1ccc(/C=C/C(=O)c2ccc(OC)cc2)cc1 | 77.3 µM | 57.7 µM | > 100 µM | > 100 µM | 39.4 µM | 62.9 µM | > 100 µM | > 100 µM | > 100 µM | 48.2 µM | > 100 µM | 57.3 µM | 73.6 µM | > 100 µM | 39.6 µM | > 100 µM | 75.1 µM | 58.6 µM | > 100 µM | 88.3 µM
10 | NC1=Nc2ccccc2Sc2nnc(-c3ccc(Cl)cc3)n21 | > 100 µM | > 100 µM | > 100 µM | > 100 µM | > 100 µM | > 100 µM | > 100 µM | > 100 µM | > 100 µM | > 100 µM | > 100 µM | > 100 µM | 68.3 µM | > 100 µM | > 100 µM | > 100 µM | > 100 µM | > 100 µM | > 100 µM | 73.1 µM
11 | O=[N+]([O-])c1ccc(N=NN2CCCC2)cc1 | > 100 µM | > 100 µM | > 100 µM | > 100 µM | > 100 µM | > 100 µM | > 100 µM | > 100 µM | > 100 µM | > 100 µM | > 100 µM | > 100 µM | > 100 µM | > 100 µM | > 100 µM | > 100 µM | > 100 µM | > 100 µM | > 100 µM | > 100 µM
12 | N#Cc1ccc(OCc2ccc3nc(-c4ccccc4)c(Cl)nc3c2)cc1 | > 100 µM | > 100 µM | > 100 µM | > 100 µM | > 100 µM | > 100 µM | > 100 µM | > 100 µM | > 100 µM | > 100 µM | > 100 µM | > 100 µM | > 100 µM | > 100 µM | > 100 µM | > 100 µM | > 100 µM | > 100 µM | > 100 µM | > 100 µM
13 | Cc1cc(NS(=O)(=O)c2ccc(Nc3c4ccccc4nc4ccc(C(=O)Nc5ccc(S(=O)(=O)N=C(N)N)cc5)cc34)cc2)no1 | > 100 µM | > 100 µM | > 100 µM | > 100 µM | > 100 µM | > 100 µM | > 100 µM | > 100 µM | > 100 µM | > 100 µM | > 100 µM | > 100 µM | > 100 µM | > 100 µM | > 100 µM | > 100 µM | > 100 µM | > 100 µM | > 100 µM | > 100 µM
14 | CN(N)/N=N/c1nc[nH]c1C(N)=O | > 100 µM | > 100 µM | > 100 µM | > 100 µM | > 100 µM | > 100 µM | > 100 µM | > 100 µM | > 100 µM | > 100 µM | > 100 µM | > 100 µM | > 100 µM | > 100 µM | > 57.2 µM | > 69.7 µM | > 100 µM | > 100 µM | > 100 µM | > 32.2 µM
15 | CN(C)Cc1cc(N=Nc2ccccc2Cl)cc(CN(C)C)c1O | > 100 µM | > 100 µM | > 100 µM | > 100 µM | 38.7 µM | > 100 µM | > 100 µM | 49.1 µM | > 100 µM | > 100 µM | > 100 µM | 41.4 µM | 28.8 µM | > 100 µM | > 100 µM | > 100 µM | 79.3 µM | 64.1 µM | > 100 µM | > 100 µM
16 | O=C(O)c1cc2c(s1)C(=O)c1sccc1C2=O | 11.9 µM | 4.81 µM | 30.5 µM | 36 µM | 3.04 µM | 1.68 µM | 41.7 µM | 2.91 µM | 3.37 µM | 30.1 µM | 7.91 µM | 6.27 µM | 8.58 µM | 15.6 µM | 6.85 µM | 32.7 µM | 1.68 µM | 4.56 µM | 3.78 µM | 38.4 µM
17 | O=C(O)C/C(=C\c1ccccc1)C(=O)O | > 100 µM | > 100 µM | > 100 µM | > 100 µM | > 100 µM | > 100 µM | > 100 µM | > 100 µM | > 100 µM | > 100 µM | > 100 µM | > 100 µM | > 100 µM | > 100 µM | > 100 µM | > 100 µM | > 100 µM | > 100 µM | > 100 µM | > 100 µM

From PubChem BioAssay (NCI)
